In patent US8987257B2 (Novartis AG, priority 2011, dated 2015):

What was measured:
H4 mCherry-GFP-LC3 cells = assay: Test 4: Autophagy Assay (mCherry-GFP-LC3 reporter, high-content imaging); format: cell-based; conditions: Homo sapiens, 16-18 h
Source text: Autophagy is a catabolic pathway that degrades bulk cytosol in lysosomal compartments enabling amino acids and fatty acids to be recycled. […] To quantify autophagy induction by mTOR inhibitors, we use a mCherry-GFP-LC3 reporter which is amenable to retroviral delivery into mammalian cells, stable expression and analysis by fluorescence microscopy.
Described hereinafter is an imaging protocol and image recognition algorithm to visualize and measure changes in the autophagic pathway.
Quantification of Autophagy Using High-Content Imaging and Analysis
• 1. Day 0: Cell plating. Subconfluent H4 mCherry-GFP-LC3 cells are harvested by trypsinization, resuspended in growth medium, and counted (H4 cells: Human neuroglioma cell line (ATCC)). A cell suspension of 66′000 cells/mL is prepared and 30 μL are added into the wells of a 384-well plate using an electronic multichannel pipette. […] The cell plates are briefly spun down and placed at 37° C. and 5% CO2. • 2. Day 1: Compound treatment. Compound dose responses are prepared in DMSO. The dose responses are then diluted 1:50 in medium. 10 ul of the diluted compound is added to 30 ul of cells, yielding a final 1:200 dilution of the original compound and final of 0.5% DMSO. Compound-treatments are performed in triplicates. The 384-well plates are placed at 37° C. and 5% CO2. Compound treatment is performed for 16-18 h (see Note 1). • 3. Day 2: Cell fixation. Cells are fixed by adding 10 μL/well 5× concentrated Mirsky's fixative supplemented with 25 μg/mL Hoechst33342. […] The 384-well plate is briefly spun down and incubated for 1 h at room temperature. Cells are then washed using a 384-well plate washer using a protocol which aspirates the volume down to 10 μL/well before dispensing 100 μL/well 1×TBS. Aspiration and dispensing steps are repeated 4 times and a final volume of 100 μL/well is left. The plate is sealed using an adhesive PCR foil. • 4. Imaging. The bottom of the plate is cleaned with 70% ethanol and then imaged using the InCell 1000 automated epifluorescence microscope. 20× magnification is used and 4 different areas (fields) are imaged per well, this typically captures a total of around 400 cells per well. Hoechst33342 images are acquired using an excitation of 360 nm (D360—40× filter), an emission of 460 nm (HQ460—40M filter) and an exposure time of 150 ms. GFP images are acquired using an excitation of 475 nm (S47520× filter), an emission of 535 nm (HQ535—50M filter) and an exposure time of 1 s. mCherry images are acquired using an excitation of 535 nm (HQ535—50× filter), an emission of 620 nm (HQ620—60M filter) and an exposure time of 1 s. A quadruple band pass mirror is used for all images. • 5. Image analysis. The InCell Analysis software is used to analyze the images using the Multi Target Analysis algorithm. First, nuclei are detected in the Hoechst33342 image using top-hat segmentation and a minimal nuclear area of 50 μm^2. Cells are defined using a collar of 10 μm around the nuclei. Second, puncta (organelles) are identified in the mCherry image inside the cells using multi-top-hat segmentation. Third, the mask of the mCherry puncta is transferred onto the GFP image. Fourth, the GFP fluorescence intensity inside the mCherry puncta mask is measured (reference intensity). • 6. The ‘organelles’ parameter reflects mCherry-positive puncta of the mCherry-GFP-LC3 reporter and is used to calculate ‘LC3 puncta/cell’. For this purpose, the number of organelles is calculated per cell and averaged over all the cells in a given well (average per cell basis). mCherry-positive LC3 puncta numbers (y-axis) are plotted against the compound dose response values (x-axis) and EC50 values are calculated for each compound. EC50 values represent compound potency in terms of autophagy activation (e.g. increase in mCherry-positive LC3 puncta count). Notes • 1. Autophagy-modulation and redistribution of mCherry-GFP-LC3 can be already observed after a compound treatment time of 3-4 h. […]

[1] = tested on: constitutively active mTOR; assay: Test 3: TSC Assay (high content imaging of phospho-S6 (240/244) in TSC1−/− MEFs); format: cell-based; conditions: Mus musculus, pS6 240/244 staining, 2 hrs compound treatment
Procedure: This assay generates IC50 values for compounds that inhibit mTOR.
Quantification of pS6 Staining Using High-Content Imaging and Analysis
Day 0: Cell plating. Subconfluent TSC1−/− MEFs are harvested by trypsinization, resuspended in growth medium, and counted. […] The plates are briefly spun down and placed at 37° C. and 5% CO2. • 2. Day 1: Cell plates are washed into a PBS starve solution (contains glucose, sodium bicarbonate, HEPES and phenol red) using a 384-well plate washer. The wash protocol aspirates the volume down to 30 μL/well before dispensing 60 μL/well of the PBS starve solution. Aspiration and dispensing steps are repeated 8 times and a final volume of 30 μL/well is left. The cell plates are placed at 37° C. and 5% CO2 for 2 hrs. • Compound treatment. Compound dose responses are prepared in DMSO. The dose responses are then diluted 1:50 in medium. 10 ul of the diluted compound is added to 30 ul of cells, yielding a final 1:200 dilution of the original compound and final of 0.5% DMSO. Compound-treatments are performed in triplicates. The plates are placed at 37° C. and 5% CO2 for 2 hrs. Cells are then fixed by adding 10 μL/well 5× concentrated Mirsky's fixative. […] The cell plates are briefly spun down and incubated for 1 h at room temperature. Cells are then washed using a 384-well plate washer using a protocol which aspirates the volume down to 30 μL/well before dispensing 60 μL/well 1×TBS. Aspiration and dispensing steps are repeated 8 times and then an additional aspiration step leaves a final volume of 10 μL/well. Block buffer (1×TBS+0.1% Triton X-100+0.1% BSA) is then added at 25 μL/well and the plates are incubated at room temperature for 30 min. The cell plates are then aspirated down to 10 μL/well. […] Plates are incubated overnight at 4° C. • 3. […] The bottom of the plate is cleaned with 70% ethanol and then imaged using the InCell 1000 automated epifluorescence microscope. […] Cy5 images are acquired using an excitation of 620 nm (Chroma 620—60× filter), an emission of 700 nm (Chroma HQ700—75M filter) and an exposure time of 200 ms. A double band pass mirror is used for all images. • 4. Image analysis: The InCell Analysis software is used to analyze the images using the Dual Object algorithm. […] The Cy5 fluorescence intensity inside the collar is measured (cell intensity) and results are reported on an “Average per cell” basis. • 5. IC50 calculation: IC50s are calculated by plotting the cell intensity values on the y-axis with dose response values on the x-axis. IC50 values represent compound potency against mTOR.

PI3Kα = PI3Kα (Homo sapiens (Human), UniProt P42336); assay: Test 1: PI3 Kinase Assay (PI3K KinaseGlo assay); format: biochemical; conditions: 1 μM ATP
PI3Kα, sequence (P42336 other isoform, or with tags, fused parts or gaps): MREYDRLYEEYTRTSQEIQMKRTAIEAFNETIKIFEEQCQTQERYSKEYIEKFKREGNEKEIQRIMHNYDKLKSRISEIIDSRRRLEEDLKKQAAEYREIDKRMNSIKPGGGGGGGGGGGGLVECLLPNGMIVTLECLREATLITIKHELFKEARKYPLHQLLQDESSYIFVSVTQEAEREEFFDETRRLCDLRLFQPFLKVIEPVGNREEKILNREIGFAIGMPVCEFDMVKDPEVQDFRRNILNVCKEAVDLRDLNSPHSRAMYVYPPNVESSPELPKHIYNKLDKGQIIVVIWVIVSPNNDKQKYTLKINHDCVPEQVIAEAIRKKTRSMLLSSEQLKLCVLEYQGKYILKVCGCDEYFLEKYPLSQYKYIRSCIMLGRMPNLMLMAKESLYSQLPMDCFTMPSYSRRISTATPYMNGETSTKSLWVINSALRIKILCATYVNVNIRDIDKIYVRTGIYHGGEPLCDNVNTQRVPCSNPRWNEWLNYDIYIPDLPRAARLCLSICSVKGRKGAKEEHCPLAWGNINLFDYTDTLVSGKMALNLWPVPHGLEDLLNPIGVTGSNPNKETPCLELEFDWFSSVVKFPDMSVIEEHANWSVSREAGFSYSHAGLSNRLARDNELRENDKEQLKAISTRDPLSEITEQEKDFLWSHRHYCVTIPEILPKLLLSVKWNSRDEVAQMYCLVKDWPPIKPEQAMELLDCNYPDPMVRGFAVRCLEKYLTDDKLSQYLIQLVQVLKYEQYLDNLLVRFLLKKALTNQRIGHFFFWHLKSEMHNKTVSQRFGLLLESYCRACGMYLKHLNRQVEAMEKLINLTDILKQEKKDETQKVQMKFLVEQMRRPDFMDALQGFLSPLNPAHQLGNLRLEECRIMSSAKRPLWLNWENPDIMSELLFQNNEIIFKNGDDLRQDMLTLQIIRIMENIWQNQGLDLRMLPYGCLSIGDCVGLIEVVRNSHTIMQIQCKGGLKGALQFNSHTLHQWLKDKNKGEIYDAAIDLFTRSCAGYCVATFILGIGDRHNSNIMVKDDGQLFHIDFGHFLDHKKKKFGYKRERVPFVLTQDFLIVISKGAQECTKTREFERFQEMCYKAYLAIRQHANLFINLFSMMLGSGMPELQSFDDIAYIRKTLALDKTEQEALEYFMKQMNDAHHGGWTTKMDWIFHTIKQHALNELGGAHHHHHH
Procedure: L-a-phosphatidylinositol (PI), provided as 10 mg/ml solution in methanol, was transferred into a glass tube and dried under nitrogen beam. It was then resuspended in 3% OctylGlucoside (OG) by vortexing and stored at 4° C. The KinaseGlo Luminescent Kinase Assay (Promega, Madison/WI, USA) is a homogeneous HTS method of measuring kinase activity by quantifying the amount of ATP remaining in solution following a kinase reaction.
Kinase reactions were started by addition of 5 μl of ATP-mix containing in a final volume 10 μL 10 mM TRIS-HCl pH 7.5, 3 mM MgCl2, 50 mM NaCl, 0.05% CHAPS, 1 mM DTT and 1 μM ATP, and occurred at room temperature.
The PI3Kα construct is a fusion of p85α iSH2 domain and the respective p110 isoform. The p85α fragment and p110 isoform gene were generated by PCR from first strand cDNA generated by RT-PCR from commercial RNA from placenta, testis and brain as described below.
The p85 fragment was derived from plasmid p1661-2 digested with Nhe/Spe. The p110α fragment derived from its clone was verified by sequencing and used in LR410 as a SpeI/HindIII fragment. For the generation of the baculovirus expression vector LR410 the gateway LR reaction to transfer the insert into the Gateway adapted pBlueBac4.5 (Invitrogen) vector was used. The cloning vector pBlueBac4.5 (Invitrogen) was digested with Nhe/HindIII. […] The two reverse primers overlap and incorporate a 12×Gly linker and the N-terminal sequence of the p110α gene to the SpeI site. The PCR fragment was cloned into pCR2.1 TOPO (Invitrogen). Of the resulting clones, p1661-2 was determined to be correct by sequencing. This plasmid was digested with Nhe and SpeI and the resulting fragment was gel-isolated and purified for sub-cloning.
PI3Kα was purified in two chromatographic steps: immobilized metal affinity chromatography (IMAC) on a Ni sepharose resin (GE Healthcare) and gel filtration utilizing a Superdex 200 26/60 column (GE Healthcare). All buffers were chilled to 4° C. and lysis was performed chilled on ice. Column fractionation was performed at room temperature.

FRAP1/mTOR = FRAP1/mTOR (Homo sapiens (Human), UniProt P42345); assay: Test 2: mTOR Biochemical Assay (FRAP1/mTOR TR-FRET tracer assay); format: binding; conditions: mTOR Kinase Tracer 314
FRAP1/mTOR, sequence (P42345 1360-2549): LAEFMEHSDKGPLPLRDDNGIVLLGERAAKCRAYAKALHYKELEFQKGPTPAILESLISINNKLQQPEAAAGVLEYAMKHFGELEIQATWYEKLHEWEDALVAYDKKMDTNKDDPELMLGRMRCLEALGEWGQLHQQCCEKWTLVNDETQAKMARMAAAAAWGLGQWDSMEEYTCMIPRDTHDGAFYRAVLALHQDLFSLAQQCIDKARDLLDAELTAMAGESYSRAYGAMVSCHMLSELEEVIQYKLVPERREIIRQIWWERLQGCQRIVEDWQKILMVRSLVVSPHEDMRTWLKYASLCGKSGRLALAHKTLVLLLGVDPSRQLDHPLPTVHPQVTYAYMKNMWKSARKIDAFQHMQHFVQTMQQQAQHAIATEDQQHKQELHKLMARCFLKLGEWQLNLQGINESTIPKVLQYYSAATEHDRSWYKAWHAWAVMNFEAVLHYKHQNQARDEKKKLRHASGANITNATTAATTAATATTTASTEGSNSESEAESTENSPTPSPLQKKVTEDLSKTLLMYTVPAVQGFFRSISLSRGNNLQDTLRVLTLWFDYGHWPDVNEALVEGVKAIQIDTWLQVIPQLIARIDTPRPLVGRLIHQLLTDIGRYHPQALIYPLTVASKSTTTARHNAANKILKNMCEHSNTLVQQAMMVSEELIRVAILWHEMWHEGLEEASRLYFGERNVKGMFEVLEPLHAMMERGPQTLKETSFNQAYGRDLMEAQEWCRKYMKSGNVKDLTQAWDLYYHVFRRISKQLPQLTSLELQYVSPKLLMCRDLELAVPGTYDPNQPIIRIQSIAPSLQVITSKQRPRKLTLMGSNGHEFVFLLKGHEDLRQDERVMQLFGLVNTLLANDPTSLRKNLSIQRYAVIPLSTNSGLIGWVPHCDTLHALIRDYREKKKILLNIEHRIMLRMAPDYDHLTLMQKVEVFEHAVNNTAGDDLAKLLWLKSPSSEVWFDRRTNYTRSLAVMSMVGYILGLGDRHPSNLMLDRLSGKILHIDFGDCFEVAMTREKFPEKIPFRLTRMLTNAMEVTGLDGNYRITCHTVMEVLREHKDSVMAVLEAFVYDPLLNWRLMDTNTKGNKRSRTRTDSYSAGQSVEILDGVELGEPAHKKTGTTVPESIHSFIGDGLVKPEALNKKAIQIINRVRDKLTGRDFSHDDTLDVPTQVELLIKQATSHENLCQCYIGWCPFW
Procedure: IC50s for mTOR interacting compounds were assessed using the FRAP1/mTOR TR-FRET tracer assay (Invitrogen by Life Technologies). […] Compounds were serially diluted in DMSO (12-point, 4× dilution factor) and 1 μL of diluted compound was then added to each well and mixed by pipetting using a Biomek FX (Beckman Coulter).

[2] = Table 4 (unit inferred), mCherry-positive LC3 puncta/cell
[3] = Table 1, mCherry-positive LC3 puncta/cell

SMILES | EC50 (H4 mCherry-GFP-LC3 cells; [2]) | IC50 [1] | IC50 (PI3Kα) | IC50 (FRAP1/mTOR) | EC50 (H4 mCherry-GFP-LC3 cells; [3])
c1cc(-c2nc3c(N4C5CCC4COC5)nc(N4CCOCC4)nc3[nH]2)c2cc[nH]c2c1 [Example 54, 8-(1H-Indol-4-yl)-2-morpholin-4-yl-6-(3-oxa-8-aza-bicyclo[3.2.1]oct-8-yl)-9H-purine] | 1250 nM | 309 nM | 5790 nM | 150 nM | 
C[C@H]1COCCN1c1nc(N2CCOC[C@@H]2C)c2nc(-c3ccc4[nH]c(=O)[nH]c4c3)[nH]c2n1 [Example 6, 5-[2,6-Bis-((S)-3-methyl-morpholin-4-yl)-9H-purin-8-yl]-1,3-dihydro-benzoimidazol-2-one] |  | 1450 nM | > 9100 nM | 30 nM | 
C[C@@H]1COCCN1c1nc(N2CCOC[C@@H]2C)nc2[nH]c(-c3cccc4[nH]ccc34)nc12 [Example 43, 8-(1H-Indol-4-yl)-2-((S)-3-methyl-morpholin-4-yl)-6-((R)-3-methyl-morpholin-4-yl)-9H-purine] | 160 nM | 39 nM | 1010 nM | 40 nM | 
C[C@H]1COCCN1c1nc(N2CCC(O)CC2)nc2[nH]c(-c3cccc4[nH]ccc34)nc12 [Example 16, 1-[8-(1H-Indol-4-yl)-6-((S)-3-methyl-morpholin-4-yl)-9H-purin-2-yl]-piperidin-4-ol] |  | 460 nM | 7300 nM | 160 nM | 2000 nM
C[C@@H]1COCCN1c1nc(N2CCOCC2)nc2[nH]c(-c3ccc4cc[nH]c4c3)nc12 [Example 21, 8-(1H-Indol-6-yl)-6-((R)-3-methyl-morpholin-4-yl)-2-morpholin-4-yl-9H-purine] |  | 831 nM | > 9100 nM | 237 nM | 498 nM
Cc1cc2c(-c3nc4c(N5CCOCC5)nc(N5CCOCC5)nc4[nH]3)cccc2[nH]1 [Example 31, 8-(2-Methyl-1H-indol-4-yl)-2,6-di-morpholin-4-yl-9H-purine] |  | 315 nM | 590 nM |  | 
C[C@@H]1CN(c2nc(N3CCOCC3)c3nc(-c4ccccc4CO)[nH]c3n2)C[C@H](C)O1 [Example 34, {2-[2-((2S,6R)-2,6-Dimethyl-morpholin-4-yl)-6-morpholin-4-yl-9H-purin-8-yl]-phenyl}-methanol] |  | 8000 nM | > 9100 nM |  | 
C[C@H]1COCCN1c1nc(N2CCOCC2)nc2[nH]c(-c3cccc4[nH]ccc34)nc12 [Example 23, 8-(1H-Indol-4-yl)-6-((S)-3-methyl-morpholin-4-yl)-2-morpholin-4-yl-9H-purine] |  | 138 nM | 5510 nM | 14 nM | 1610 nM
Nc1cccc(-c2nc3c(N4CCOCC4)nc(N4CCOCC4)nc3[nH]2)c1 [Example 29, 3-(2,6-Di-morpholin-4-yl-9H-purin-8-yl)-phenylamine] |  | 2080 nM | 3860 nM | 1210 nM | > 5000 nM
OCc1cccc(-c2nc3c(N4CCOCC4)nc(N4CCOCC4)nc3[nH]2)c1 [Example 37, [3-(2,6-Di-morpholin-4-yl-9H-purin-8-yl)-phenyl]-methanol] |  | 620 nM | 10 nM |  | 
c1cc(-c2cc3c(N4CCOCC4)nc(N4CCOCC4)nc3[nH]2)c2cc[nH]c2c1 [Example 56, 6-(1H-Indol-4-yl)-2,4-di-morpholin-4-yl-7H-pyrrolo[2,3-d]pyrimidine] | 3650 nM | 174 nM | 2010 nM | 2390 nM | 
CS(=O)(=O)Nc1cccc(-c2nc3c(N4CCOCC4)nc(N4CCOCC4)nc3[nH]2)c1 [Example 33, N-[3-(2,6-Di-morpholin-4-yl-9H-purin-8-yl)-phenyl]-methanesulfonamide] |  | 2990 nM | > 9100 nM | 380 nM | 7730 nM
C[C@@H]1COCCN1c1nc(N2CCOCC2)nc2[nH]c(-c3cccc4[nH]ccc34)nc12 [Example 20, 8-(1H-Indol-4-yl)-6-((R)-3-methyl-morpholin-4-yl)-2-morpholin-4-yl-9H-purine] |  | 90 nM | 6050 nM | 6 nM | 452 nM
C[C@@H]1COCCN1c1nc(N2CCOC[C@@H]2C)nc2[nH]c(-c3cccc4[nH]ccc34)cc12 [Example 55, 6-(1H-Indol-4-yl)-4-((R)-3-methyl-morpholin-4-yl)-2-((S)-3-methyl-morpholin-4-yl)-7H-pyrrolo[2,3-d]pyrimidine] | 1000 nM | 71 nM | 1440 nM | 2670 nM | 
C[C@H]1COCCN1c1nc(N2CCOC[C@@H]2C)c2nc(-c3cccc4[nH]ccc34)[nH]c2n1 [Example 22, 8-(1H-Indol-4-yl)-2,6-bis-((S)-3-methyl-morpholin-4-yl)-9H-purine] |  | 113 nM | 5860 nM | 5 nM | 761 nM
C[C@@H]1COCCN1c1nc(N2CCOC[C@H]2C)c2nc(-c3cc(CO)ccc3F)[nH]c2n1 [Example 19, {3-[2,6-Bis-((R)-3-methyl-morpholin-4-yl)-9H-purin-8-yl]-4-fluoro-phenyl}-methanol] |  | 300 nM | 170 nM | 134 nM | 2000 nM
Oc1ccccc1-c1nc2c(N3CCOCC3)nc(N3CCOCC3)nc2[nH]1 [Example 38, 2-(2,6-Di-morpholin-4-yl-9H-purin-8-yl)-phenol] |  | > 50000 nM | 480 nM |  | 
c1cc(-c2nc3c(N4CCOCC4)nc(N4CCOCC4)nc3[nH]2)c2cc[nH]c2c1 [Example 26, 8-(1H-Indol-4-yl)-2,6-di-morpholin-4-yl-9H-purine] |  | 81 nM | 570 nM | 8 nM | 184 nM
COc1ccc(-c2nc3c(N4CCOC[C@@H]4C)nc(N4CCOC[C@@H]4C)nc3[nH]2)cc1CO [Example 7, {5-[2,6-Bis-((S)-3-methyl-morpholin-4-yl)-9H-purin-8-yl]-2-methoxy-phenyl}-methanol] |  | 455 nM | 2540 nM |  | 
C[C@H]1COCCN1c1nc(N2CCOCC2)nc2[nH]c(-c3ccc4cc[nH]c4c3)nc12 [Example 24, 8-(1H-Indol-6-yl)-6-((S)-3-methyl-morpholin-4-yl)-2-morpholin-4-yl-9H-purine] |  | 632 nM | 8540 nM | 85 nM | 
Oc1cccc(-c2nc3c(N4CCOCC4)nc(N4CCOCC4)nc3[nH]2)c1 [Example 36, 3-(2,6-Di-morpholin-4-yl-9H-purin-8-yl)-phenol] |  | 73 nM | 20 nM |  | 
OCc1ccccc1-c1nc2c(N3CCOCC3)nc(N3CCOCC3)nc2[nH]1 [Example 35, [2-(2,6-Di-morpholin-4-yl-9H-purin-8-yl)-phenyl]-methanol] |  | 4010 nM | 5870 nM |  | 
C[C@@H]1CN(c2nc(N3CCOCC3)c3nc(-c4cccc(O)c4)[nH]c3n2)C[C@H](C)O1 [Example 1, 3-[2-((2S,6R)-2,6-Dimethyl-morpholin-4-yl)-6-morpholin-4-yl-9H-purin-8-yl]-phenol] |  | 118 nM | 20 nM |  | 
C[C@@H]1CN(c2nc(N3CCOCC3)c3nc(-c4cccc(N)c4)[nH]c3n2)C[C@H](C)O1 [Example 32, 3-[2-((2S,6R)-2,6-Dimethyl-morpholin-4-yl)-6-morpholin-4-yl-9H-purin-8-yl]-phenylamine] |  | 1040 nM | 2520 nM | 1040 nM | 
